Data as given in patent US7795307B2, “Carbamoyl esters that inhibit cholinesterase and release pharmacologically active agents” (priority 2003, dated 2010).

Experiments:
[1] = target: human recombinant acetylcholinesterase (Homo sapiens, UniProt P22303); test: biochemical; details: 25° C., 30 minutes preincubation, 0.3 mM acetylthiocholine, Dixon plot
[2] = test system: total cholinesterase activity in the brain; test: Total cholinesterase activity in brain homogenate of rats after i.p. injection; type: in vivo, Male Wistar rats; details: for ChE inhibition: brain 3 hours after injection, relative to saline treated rats; for tolerability of the injected dose: i.p., male Wistar rats, dose giving a cholinergic behavioral effect with minimal side effects
Protocol: Animals were decapitated 3 hours after injection and the brains rapidly removed. The brain tissue was diced into small pieces, placed on ice and immediately homogenized with a Polytron PT1200 (Kinematic AG) in 10 ml ice cold Tris with 0.1% Triton-X and protease inhibitors. The protease inhibitors in the extraction buffer were Antipain (10 μM), Aprotinin (5 TIU/mg protein), Bestatin ([…]), Leupeptin (10 μM) and Pepstatin (1 μM). The final dilution of the homogenate in the final assay mixture was 120-fold.
Total cholinesterase activity was determined by a modification of the colorimetric method of Ellmann, et al. (Biochem. Pharmacol., 7:88-95 (1961)), as described above. Hydrolysis of acetylthiocholine was monitored indirectly by measurement of the formation of the conjugate between thiocholine and DTNB. Optical density at 405 nm was recorded during five (5) minutes employinga a microplate spectrophotometer (Polarstar, BMG Labtech), and plotted against time. The initial rates were calculated from the slope of the linear portion of the graph.
Cholinesterase activity was normalized for protein content of the homogenate. Relative cholinesterase activity was calculated as the ratio of normalized cholinesterase activity in a rat treated with a control compound or a carbamoyl ester over normalized cholinesterase activity in saline treated rats.

Chain of human recombinant acetylcholinesterase (P22303 32-614): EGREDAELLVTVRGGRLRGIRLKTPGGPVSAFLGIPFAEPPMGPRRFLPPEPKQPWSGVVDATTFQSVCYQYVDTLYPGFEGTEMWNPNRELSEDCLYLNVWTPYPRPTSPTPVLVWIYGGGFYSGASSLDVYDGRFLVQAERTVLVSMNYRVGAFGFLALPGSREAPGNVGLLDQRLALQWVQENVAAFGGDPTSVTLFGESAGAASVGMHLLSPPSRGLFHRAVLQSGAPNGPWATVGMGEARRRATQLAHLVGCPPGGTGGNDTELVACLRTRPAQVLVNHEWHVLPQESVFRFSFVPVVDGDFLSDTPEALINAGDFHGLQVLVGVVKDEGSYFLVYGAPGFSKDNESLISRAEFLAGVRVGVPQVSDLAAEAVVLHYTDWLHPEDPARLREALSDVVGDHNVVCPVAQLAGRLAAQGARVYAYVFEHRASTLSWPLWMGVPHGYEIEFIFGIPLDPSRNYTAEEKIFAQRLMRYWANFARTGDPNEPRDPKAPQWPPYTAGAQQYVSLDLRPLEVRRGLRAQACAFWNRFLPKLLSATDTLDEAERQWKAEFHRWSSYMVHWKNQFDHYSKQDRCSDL

Cc1ccccc1O[C@H](CCN(C)C(=O)Oc1cccc([C@H](C)N(C)C)c1)c1ccccc1 [Compound 5]
IC50 [1]: 460 nM

C[C@H](Cc1ccccc1)N(C)C(=O)Oc1cccc([C@H](C)N(C)C)c1 [Compound 7]
ChE inhibition ([2]; 2 mg/kg i.p.): 38%
tolerability of the injected dose [2]: well-tolerated

C[C@H](Cc1ccccc1)NC(=O)Oc1cccc([C@H](C)N(C)C)c1 [Compound 9]
ChE inhibition ([2]; 8 mg/kg i.p.): 41%
tolerability of the injected dose [2]: well-tolerated

C[C@H](Cc1ccccc1)N(C)C(=O)Oc1ccc2c(c1)[C@]1(C)CCN(C)[C@@H]1N2C [Compound 13]
IC50 [1]: 5440 nM

C[C@H](Cc1ccccc1)NC(=O)Oc1ccc2c(c1)[C@]1(C)CCN(C)[C@@H]1N2C [Compound 14]
IC50 [1]: 253 nM

C[C@@H](Cc1ccccc1)NC(=O)Oc1cccc([C@H](C)N(C)C)c1 [Compound 20]
IC50 [1]: 449 nM

CCN(C)C(=O)Oc1cccc([C@H](C)N(C)C)c1 [Rivastigmine, reference compound]
tolerability of the injected dose [2]: well-tolerated
